{"source": "patent US20110166112A1", "about": "“METHOD FOR STIMULATING PLATELET PRODUCTION” (Eisai, Inc., priority 2009, published 2011)", "origin": "cited, not measured here", "test_system": "subjects", "details": "in eight days; cited from earlier work"}
{"smiles": "CC1=NN(c2ccc(C)c(C)c2)C(=O)/C1=N\\Nc1cccc(-c2cccc(C(=O)O)c2)c1O.NCCO.NCCO", "note": "[Promacta®]", "values": [{"measurement": "subjects who achieved a platelet response of 50,000/mm^3", "value": "44-62%"}]}
